The target in experiment [1] is T1, GluK2 kainate receptor (Rattus norvegicus, UniProt P42260, I567V/Y571C).
T1 construct: gene Grik2; full-length rat GluK2 (GenBank CAA77778.1), V567, C571, Q621 (Q/R site unedited); LBD-TMD modelled (S429-R874); homotetramer
The experiment can be described thus: cryo-EM structure ([…] Å, with BPAM344); IC50 from whole-cell patch clamp in HEK293 cells. Type of experiment: cell-based. (In general: In patch-clamp work, channel activity is measured electrically.)

Experiment [2] deals with T1, GluK2 kainate receptor. Described as above. Type of experiment: cell-based. The source holds these as a separate data set.
Experiment [3] deals with T1, GluK2 kainate receptor. The experiment can be described thus: cryo-EM structures (four BPAM344 molecules per tetramer in all four structures).
Experiment [4] addresses T2, GluK2 kainate receptor (Rattus norvegicus, UniProt P42260).
T2 construct: gene Grik2; full-length rat GluK2, Q621 (Q/R site unedited), homotetramer
The experiment can be described thus: whole-cell patch clamp in HEK293 cells expressing GluK2 (agonist, with ConA treatment). Type of experiment: cell-based.

Experiment [5] has as its target T1, GluK2 kainate receptor. The experiment can be described thus: cryo-EM structure ([…] Å, with BPAM344); IC50 from whole-cell patch clamp in HEK293 cells. Type of experiment: cell-based. The source holds these as a separate data set.
Experiment [6] has as its target T1, GluK2 kainate receptor. Described as above. It is filed as cell-based. This is another data set of the same source.

A word on the IC50: it is the concentration that gives 50% inhibition.

The structures appear in SMILES notation. Like-named read-outs stand apart in the source and are kept apart here.

T1 sequence (P42260 32-908 I567V/Y571C): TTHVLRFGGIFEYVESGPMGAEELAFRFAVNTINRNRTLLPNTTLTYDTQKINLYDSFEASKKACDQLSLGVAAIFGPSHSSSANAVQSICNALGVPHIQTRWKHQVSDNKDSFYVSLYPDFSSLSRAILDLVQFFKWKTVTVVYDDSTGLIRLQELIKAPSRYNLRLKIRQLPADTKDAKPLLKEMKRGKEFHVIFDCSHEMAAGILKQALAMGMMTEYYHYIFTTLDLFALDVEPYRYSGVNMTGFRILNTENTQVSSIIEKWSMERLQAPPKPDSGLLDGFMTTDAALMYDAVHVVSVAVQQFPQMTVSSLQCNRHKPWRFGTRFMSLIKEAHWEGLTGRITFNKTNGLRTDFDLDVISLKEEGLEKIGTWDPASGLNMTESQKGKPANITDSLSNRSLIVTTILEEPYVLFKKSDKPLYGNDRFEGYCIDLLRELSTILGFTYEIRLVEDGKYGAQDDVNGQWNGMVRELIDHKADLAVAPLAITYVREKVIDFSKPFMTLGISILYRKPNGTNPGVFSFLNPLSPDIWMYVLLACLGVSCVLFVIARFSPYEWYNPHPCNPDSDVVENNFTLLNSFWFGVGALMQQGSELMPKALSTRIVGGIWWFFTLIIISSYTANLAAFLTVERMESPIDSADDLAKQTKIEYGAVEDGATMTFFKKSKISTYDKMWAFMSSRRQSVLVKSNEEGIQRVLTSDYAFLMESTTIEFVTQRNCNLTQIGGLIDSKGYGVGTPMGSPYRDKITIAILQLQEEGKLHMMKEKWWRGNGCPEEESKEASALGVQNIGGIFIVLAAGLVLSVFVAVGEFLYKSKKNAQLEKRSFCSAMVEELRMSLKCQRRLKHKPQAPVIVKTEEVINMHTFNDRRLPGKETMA
T2 sequence (P42260 32-908): as the sequence (P42260 32-908 I567V/Y571C) above, with V536I, C540Y counted along it

For `NCCCNCCCCNCCC(=O)NCCCCCNC(=O)[C@@H](CC(N)=O)NC(=O)Cc1c[nH]c2ccccc12` [NpTx-8], half-maximal inhibition at GluK2 kainate receptor [1] (IC50) was put at 0.51 ± 0.01 µM.
Turning to `NCCCNCCCCNCCCN` [SPM, spermine], the IC50 against GluK2 kainate receptor [2] was 7770 ± 510 µM.
Consider `O=S1(=O)NCN(C2CC2)c2ccc(F)cc21` [BPAM, BPAM344], for which the “cryo-EM structures (four BPAM344 molecules per tetramer in all four structures)” value on GluK2 kainate receptor [3] is “improved map quality, with well-resolved densities for BPAM, carbohydrates, and annular lipids”.
For the compound `C=C(C)[C@H]1CN[C@H](C(=O)O)[C@H]1CC(=O)O` [KA, kainic acid], at GluK2 kainate receptor [4], the “whole-cell patch clamp in HEK293 cells expressing GluK2 (agonist, with ConA trea)” value is given as “the agonist kainic acid (KA) elicited large inward currents with a steady-state value of IControl”.
Compound `O=C(CCc1ccc(O)c(O)c1)NCCCNCCCCNCCCNC(=O)CCc1ccc(O)c(O)c1` [KukoA, Kukoamine A] had an IC50 against GluK2 kainate receptor [5] of 704 ± 31 µM.
`CCCC(=O)N[C@H](Cc1ccc(O)cc1)C(=O)NCCCCCCCNCCCCN` [PhTx-74] yielded an IC50 at GluK2 kainate receptor [6] of 7.53 ± 0.35 µM.
